Data: patent publication US20080194546A1, “Pyrido-, Pyrazo- and Pyrimido-Pyrimidine Derivatives as mTOR Inhibitors” (KuDOS Pharmaceuticals Limited, priority 2005, published 2008)

Molecular target: T1, mTOR (Homo sapiens, UniProt P42345)
T1 construct: mTOR protein was isolated from HeLa cell cytoplasmic extract by immunoprecipitation; endogenous in cells; host or cells: HeLa cell cytoplasmic extract (immunoprecipitate)
Assay: Biological Assay: mTOR enzyme activity, mTOR immunoprecipitated from HeLa cell cytoplasmic extract, recombinant PHAS-1 as substrate
Format: biochemical
Conditions: Biological Assay, upper bounds; read-out: IC50 values against mTOR
Text: For mTOR enzyme activity assays, mTOR protein was isolated from HeLa cell cytoplasmic extract by immunoprecipitation, and activity determined essentially as described previously using recombinant PHAS-1 as a substrate (ref. 21).

Row | Compound | IC50 [nM]
1 | Cc1cccc(Nc2ccc3c(N4CCOCC4)nc(N4C[C@@H](C)O[C@@H](C)C4)nc3n2)n1 [Example 2be] | < 1000
2 | C[C@@H]1CN(c2nc(N3CCOCC3)c3ccc(Nc4ccc(Cl)cc4)nc3n2)C[C@H](C)O1 [Example 2k] | < 1000
3 | C[C@@H]1CN(c2nc(N3CCOCC3)c3ccc(Nc4ccc(Cl)cc4O)nc3n2)C[C@H](C)O1 [Example 2aa] | < 1000
4 | C[C@@H]1CN(c2nc(N3CCOCC3)c3ccc(Nc4nc(-c5ccccc5Cl)cs4)nc3n2)C[C@H](C)O1 [Example 2s] | < 10000
5 | C[C@@H]1CN(c2nc(N3CCOCC3)c3ccc(Nc4cccc5cnccc45)nc3n2)C[C@H](C)O1 [Example 2f] | < 10000
6 | COc1ccc(/C=C/c2ccc(Nc3ccc4c(N5CCOCC5)nc(N5C[C@@H](C)O[C@@H](C)C5)nc4n3)cc2)cc1 [Example 2p] | < 1000
7 | C[C@@H]1CN(c2nc(N3CCOCC3)c3ccc(Nc4ccc(C5SCCS5)cc4)nc3n2)C[C@H](C)O1 [Example 2ae] | < 10000
8 | C=C(C)CNc1ccc2c(N3CCOCC3)nc(N3C[C@@H](C)O[C@@H](C)C3)nc2n1 [Example 2v] | < 10000
9 | C[C@@H]1CN(c2nc(N3CCOCC3)c3ccc(-c4ccc5c(c4)OCCO5)nc3n2)C[C@H](C)O1 [Example 1at] | < 1000
10 | C[C@@H]1CN(c2nc(N3CCOCC3)c3ccc(Nc4cnccn4)nc3n2)C[C@H](C)O1 [Example 2bc] | < 10000
11 | CC(C)c1cccc(Nc2ccc3c(N4CCOCC4)nc(N4C[C@@H](C)O[C@@H](C)C4)nc3n2)c1 [Example 2n] | < 1000
12 | C[C@@H]1CN(c2nc(N3CCOCC3)c3ccc(NC(=O)C4CCCC4)nc3n2)C[C@H](C)O1 [Example 5b] | < 10000
13 | C[C@@H]1CN(c2nc(N3CCOCC3)c3ccc(NCC4CC4)nc3n2)C[C@H](C)O1 [Example 2aj] | < 10000
14 | C[C@@H]1CN(c2nc(N3CCOCC3)c3ccc(-c4cncnc4)nc3n2)C[C@H](C)O1 [Example 1az] | < 10000
15 | Cc1cc([N+](=O)[O-])cc(Cl)c1Nc1ccc2c(N3CCOCC3)nc(N3C[C@@H](C)O[C@@H](C)C3)nc2n1 [Example 2l] | < 10000
16 | C[C@@H]1CN(c2nc(N3CCOCC3)c3ccc(Nc4cccc5cccnc45)nc3n2)C[C@H](C)O1 [Example 2o] | < 10000
17 | C[C@@H]1CN(c2nc(N3CCOCC3)c3ccc(N(C)C)nc3n2)C[C@H](C)O1 [Example 2d] | < 10000
18 | COc1ccc(-c2ccc3c(N4C[C@@H](C)O[C@@H](C)C4)nc(N4CCOCC4)nc3n2)cc1CO [Example 1ae] | < 1000
19 | C[C@@H]1CN(c2nc(N3CCOCC3)c3ccc(N)nc3n2)C[C@H](C)O1 [Example 3a] | < 1000
20 | C[C@@H]1CN(c2nc(N3CCOCC3)c3ccc(-c4ccc(Cl)s4)nc3n2)C[C@H](C)O1 [Example 1al] | < 1000
21 | C[C@@H]1CN(c2nc(N3CCOCC3)c3ccc(-c4ccc(OC(F)(F)F)cc4)nc3n2)C[C@H](C)O1 [Example 1ao] | < 1000
22 | COc1ccc(-c2ccc3c(N4CCOCC4)nc(N(CCO)CCO)nc3n2)cc1CO [Example 1o] | < 100
23 | CC(=O)c1ccc(-c2ccc3c(N4CCOCC4)nc(N4C[C@@H](C)O[C@@H](C)C4)nc3n2)s1 [Example 1ag] | < 1000
24 | CCCCOc1ccc2c(N3CCOCC3)nc(N3C[C@@H](C)O[C@@H](C)C3)nc2n1 [Example 7] | < 10000
25 | C[C@@H]1CN(c2nc(N3CCOCC3)c3ccc(Nc4ccc5cccc(O)c5n4)nc3n2)C[C@H](C)O1 [Example 2ay] | < 10000

Row | Compound | IC50 [nM]
26 | Cc1cccc(-c2ccc3c(N4CCOCC4)nc(N4C[C@@H](C)O[C@@H](C)C4)nc3n2)c1 [Example 1aj] | < 1000
27 | C[C@@H]1CN(c2nc(N3CCOCC3)c3ccc(NC4CCC4)nc3n2)C[C@H](C)O1 [Example 2ai] | < 10000
28 | Cc1nnc(Nc2ccc3c(N4CCOCC4)nc(N4C[C@@H](C)O[C@@H](C)C4)nc3n2)o1 [Example 2ao] | < 10000
29 | Cc1ccc(-c2ccc3c(N4CCOCC4)nc(N4CCCC[C@@H]4C)nc3n2)cc1 [Example 1s] | < 1000
30 | Cc1cc(-c2ccc3c(N4CCOCC4)nc(N4C[C@@H](C)O[C@@H](C)C4)nc3n2)cs1 [Example 1y] | < 1000
31 | C[C@@H]1CN(c2nc(N3CCOCC3)c3ccc(Nc4ccc(C#N)cc4)nc3n2)C[C@H](C)O1 [Example 2h] | < 1000
32 | COC(=O)c1ccc(Nc2ccc3c(N4CCOCC4)nc(N4C[C@@H](C)O[C@@H](C)C4)nc3n2)cc1 [Example 2g] | < 1000
33 | C[C@H]1CCCCN1c1nc(N2CCOCC2)c2ccc(Nc3ccccc3)nc2n1 [Example 2i] | < 1000
34 | C[C@@H]1CN(c2nc(N3CCOCC3)c3ccc(Nc4ccsc4)nc3n2)C[C@H](C)O1 [Example 2aq] | < 1000
35 | C[C@@H]1CN(c2nc(N3CCOCC3)c3ccc(NC4CCN(C)CC4)nc3n2)C[C@H](C)O1 [Example 2w] | < 10000
36 | C[C@@H]1CN(c2nc(N3CCOCC3)c3ccc(NC(=O)CSc4ccccc4)nc3n2)C[C@H](C)O1 [Example 5d] | < 10000
37 | Cc1ccc(Nc2ccc3c(N4CCOCC4)nc(N4C[C@@H](C)O[C@@H](C)C4)nc3n2)cc1 [Example 2j] | < 1000
38 | C[C@@H]1CN(c2nc(N3CCOCC3)c3ccc(-c4ccc5[nH]ccc5c4)nc3n2)C[C@H](C)O1 [Example 1x] | < 1000
39 | C[C@@H]1CN(c2nc(N3CCOCC3)c3ccc(Nc4ccncc4)nc3n2)C[C@H](C)O1 [Example 2ba] | < 100
40 | CSc1nc2ccc(Nc3ccc4c(N5CCOCC5)nc(N5C[C@@H](C)O[C@@H](C)C5)nc4n3)cc2s1 [Example 2ad] | < 1000
41 | C[C@@H]1CN(c2nc(N3CCOCC3)c3ccc(Nc4cccnc4)nc3n2)C[C@H](C)O1 [Example 2az] | < 1000
42 | C[C@@H]1CN(c2nc(N3CCOCC3)c3ccc(-c4ccc5c(c4)OCO5)nc3n2)C[C@H](C)O1 [Example 1ak] | < 10000
43 | Cc1ccc(Nc2ccc3c(N4CCOCC4)nc(N4C[C@@H](C)O[C@@H](C)C4)nc3n2)nc1 [Example 2bd] | < 1000
44 | COC(=O)c1cc(Nc2ccc3c(N4CCOCC4)nc(N4C[C@@H](C)O[C@@H](C)C4)nc3n2)cn1C [Example 2as] | < 1000
45 | C[C@@H]1CN(c2nc(N3CCOCC3)c3ccc(NC4CCCCC4)nc3n2)C[C@H](C)O1 [Example 2af] | < 1000
46 | C[C@@H]1CN(c2nc(N3CCOCC3)c3ccc(Nc4nc[nH]c4C#N)nc3n2)C[C@H](C)O1 [Example 2ar] | < 1000
47 | C[C@@H]1CN(c2nc(N3CCOCC3)c3ccc(Nc4nccc(-c5ccco5)n4)nc3n2)C[C@H](C)O1 [Example 2ax] | < 1000
48 | COc1ccc(-c2ccc3c(N4CCOCC4)nc(N4C[C@@H](C)O[C@@H](C)C4)nc3n2)cc1F [Example 1w] | < 1000
49 | C[C@@H]1CN(c2nc(N3CCOCC3)c3ccc(-c4cccc(CO)c4)nc3n2)C[C@H](C)O1 [Example 1q] | < 100
50 | C[C@@H]1CN(c2nc(N3CCOCC3)c3ccc(Nc4nc5cncnc5[nH]4)nc3n2)C[C@H](C)O1 [Example 2au] | < 10000

Row | Compound | IC50 [nM]
51 | COC(=O)c1cccc(-c2ccc3c(N4CCOCC4)nc(N4C[C@@H](C)O[C@@H](C)C4)nc3n2)c1 [Example 1am] | < 1000
52 | C[C@@H]1CN(c2nc(N3CCOCC3)c3ccc(NS(C)(=O)=O)nc3n2)C[C@H](C)O1 [Example 6] | < 10000
53 | C[C@@H]1CN(c2nc(N3CCOCC3)c3ccc(-c4cccc5ccccc45)nc3n2)C[C@H](C)O1 [Example 1an] | < 1000
54 | Cc1ccc(-n2nc(C)cc2Nc2ccc3c(N4CCOCC4)nc(N4C[C@@H](C)O[C@@H](C)C4)nc3n2)cc1 [Example 2y] | < 10000
55 | C[C@@H]1CN(c2nc(N3CCOCC3)c3ccc(NC4CCCC4)nc3n2)C[C@H](C)O1 [Example 2ag] | < 10000
56 | C[C@@H]1CN(c2nc(N3CCOCC3)c3ccc(-c4ccc5c(c4)OCCCO5)nc3n2)C[C@H](C)O1 [Example 1ba] | < 10000
57 | C[C@@H]1CN(c2nc(N3CCOCC3)c3ccc(-c4cnn(C)c4)nc3n2)C[C@H](C)O1 [Example 1ad] | < 1000
58 | C[C@@H]1CN(c2nc(N3CCOCC3)c3ccc(-c4cccc5cccnc45)nc3n2)C[C@H](C)O1 [Example 1ay] | < 10000
59 | C[C@@H]1CN(c2nc(N3CCOCC3)c3ccc(Nn4cnnc4)nc3n2)C[C@H](C)O1 [Example 2r] | < 10000
60 | C[C@@H]1CN(c2nc(N3CCOCC3)c3ccc(-c4ccsc4)nc3n2)C[C@H](C)O1 [Example 1i] | < 100
61 | CCC1CCCCN1c1nc(N2CCOCC2)c2ccc(-c3ccc(OC)c(CO)c3)nc2n1 (stereo not shown) [Example 1bc] | < 100
62 | C[C@@H]1CN(c2nc(N3CCOCC3)c3ccc(Nc4oc(-c5ccccc5)cc4C#N)nc3n2)C[C@H](C)O1 [Example 2ap] | < 1000
63 | C[C@@H]1CN(c2nc(N3CCOCC3)c3ccc(Nc4cc(F)c(F)cc4[N+](=O)[O-])nc3n2)C[C@H](C)O1 [Example 2ac] | < 1000
64 | COc1ccc(-c2ccc3c(N4CCOCC4)nc(N4CCCC[C@@H]4C)nc3n2)cc1 [Example 1u] | < 1000
65 | C[C@@H]1CN(c2nc(N3CCOCC3)c3ccc(-c4ccc(C=O)s4)nc3n2)C[C@H](C)O1 [Example 1ap] | < 1000
66 | Cc1ccc(-c2ccc3c(N4CCOCC4)nc(N4C[C@@H](C)O[C@@H](C)C4)nc3n2)cc1 [Example 1d] | < 100
67 | COCCN(CCOC)c1nc(N2CCOCC2)c2ccc(-c3ccc(OC)c(CO)c3)nc2n1 [Example 1af] | < 1000
68 | C[C@@H]1CN(c2nc(N3CCOCC3)c3ccc(-c4ccoc4)nc3n2)C[C@H](C)O1 [Example 1aa] | < 1000
69 | CC1CCCCN1c1nc(N2CCOCC2)c2ccc(-c3ccccc3)nc2n1 (stereo not shown) [1 h] | < 10000
70 | Cc1cnccc1Nc1ccc2c(N3CCOCC3)nc(N3C[C@@H](C)O[C@@H](C)C3)nc2n1 [Example 2t] | < 1000
71 | CC(=O)Nc1ccc2c(N3CCOCC3)nc(N3C[C@@H](C)O[C@@H](C)C3)nc2n1 [Example 5f] | < 10000
72 | CC(=O)c1ccc(-c2ccc3c(N4CCOCC4)nc(N4C[C@@H](C)O[C@@H](C)C4)nc3n2)cc1 [Example 1aq] | < 1000
73 | C[C@@H]1CN(c2nc(N3CCOCC3)c3ccc(Nc4nccc5cccnc45)nc3n2)C[C@H](C)O1 [Example 2av] | < 1000
